Values of other authors as cited in patent US20180117080A1, “COMPOSITIONS AND METHODS FOR TREATING SKIN CONDITIONS” (priority 2015, published 2018).

[Cl-].[K+] [KCl, Potassium Chloride]
g/L Water Solubility 20c: 344 g/L
